Measurements from US20080170990A1, “Methods for Myocardial Imaging in Patients Having a History of Pulmonary Disease” (CV THERAPEUTICS, INC., priority 2006, published 2008).

Experiments:
[1] = system: subjects undergoing stress/rest MPI; assay: Stress/rest SPECT myocardial perfusion imaging, adenosine vs Regadenoson (Example 6); assay type: in vivo, human; settings: SPECT MPI, 17-segment model; p=n.s.
Description: To determine the ability of Regadenoson to produce coronary hyperemia and accurately detect CAD, 35 subjects (26 men, 9 women; 67±10 years) underwent both A and Regadenoson stress/rest MPI, with 10.0±9.1 days between studies. […] Regadenoson [400 mcg (n=18), 500 mcg (n=17)] was administered as an IV bolus immediately followed by a saline flush, and then a Tc-99m radiopharmaceutical [sestamibi (n=34), tetrofosmin (n=1)]. SPECT images were uniformly processed, intermixed with control studies (normal and fixed-only defects), and interpreted by three observers in a blinded fashion using a 17-segment model. Quantitative analysis was also performed using 4D MSPECT. In addition to three separate readings, a consensus interpretation was performed and then a direct, same-screen comparison of A and REGADENASON images undertaken to determine relative differences, using 5 regions per study.

COPD patients = settings: both, human, in vivo
Source text: COPD patients were selected from two phase III randomized, triple-blind, placebo-controlled, multicenter studies (N=2,015) designed to test the strength of agreement for reversible cardiac defects between ADO and REG. There were 35 patients in the ADO group and 69 in the Regadenoson group. Age and gender were similar between ADO (68=11 yrs; 77% male) and Regadenoson group (68±11 yrs; 81% male). Of the 35 patients, 5 suffered (14%) cardiac symptoms in the ADO group vs 3/69 (4%) in the Regadenoson group (p=0.12); 14/35 (40%) in the ADO vs. 20/69 (29%) in the Regadenoson group resorted respiratory symptoms (p=0.28). Angina, occurrence of second degree AV block, acute pulmonary oedema and ronchi were higher in ADO group; nausea, GI discomfort and headache occurred more often in the Regadenoson group.

[2] = system: patients undergoing a clinically indicated coronary catheterization; assay: Coronary blood flow velocity (CBFv) by Doppler flow wire after IV bolus, open label study (Example 1); assay type: in vivo, human; settings: 18 μg intracoronary (IC) Ado; mean ±SD
Description: The purpose of this open label study was to determine the magnitude and duration of effect of Regadenoson (10-500 μg) on CBFv in humans.
Patients undergoing a clinically indicated coronary catheterization with no more than a 70% stenosis in any coronary artery and no more than a 50% stenosis of the study vessel had CBFv determined by Doppler flow wire. Study subjects were selected after measuring baseline and peak CBFv after an intracoronary (IC) injection of 18 μg of Ado. Twenty-three patients, who were identified as meeting the study criteria of having a peak to baseline CBFv ration of ≧2.5 in response to Adenosine, received a rapid (≦10 sec) peripheral IV bolus of Regadenoson; Doppler signals were stable and interpretable over the time-course of the increase in CBFv in 17 patients.

awake rats = assay: Sympathoexcitation: heart rate, blood pressure and plasma catecholamines after i.v. bolus (Example 5); assay type: in vivo, rat; settings: in the presence of hexamethonium 10 mg/kg, n=5
Description: CVT (0.31 μg/kg-50 μg/kg) was given as a rapid i.v. bolus to awake rats and heart rate (HR) and blood pressure (BP) were monitored. Regadenoson caused an increase in BP and systolic pressure (SP) at lower doses while at higher doses there was a decrease in BP and SP. […] The increase in HR was evident at the lowest dose of CVT at which there was no appreciable decrease in BP. ZM241385 (30 μg/kg, N=5), an A2A adenosine receptor antagonist, attenuated the decrease in BP (Regadenoson: 14±3%, ZM: 1±1%) and the increase in HR (CVT: 27±3%, ZM: 18±3%) caused by Regadenoson. Pretreatment with metoprolol (MET, 1 mg/kg, n=5), a beta-blocker, attenuated the increase in HR (CVT: 27±3%, MET: 15±2%), but had no effect on hypotension caused by Regadenoson. In the presence of hexamethonium (HEX, 10 mg/kg, n=5), a ganglionic blocker, the tachycardia was prevented (CVT: 27±3%, HEX: −1±2%), but BP was further reduced (CVT: −11±2%, HEX: −49±5%).

Compound | summed score following stress, visual analysis [1] | patients with cardiac symptoms (COPD patients) [%] | patients with cardiac symptoms, number (COPD patients) | patients with respiratory symptoms (COPD patients) [%] | patients with respiratory symptoms, number (COPD patients) | peak to baseline CBFv ratio [2] | BP change caused by Regadenoson (awake rats) [%] | HR change (tachycardia) caused by Regadenoson (awake rats) [%]
Nc1ncnc2c1ncn2[C@@H]1O[C@H](CO)[C@@H](O)[C@H]1O [ADO, adenosine, reference compound] | 133.9±1.5 | 14 | 5 | 40 | 14/35 | 3.2±0.5 |  | 
C[N+](C)(C)CCCCCC[N+](C)(C)C [hexamethonium, reference compound] |  |  |  |  |  |  | −49±5 | −1±2
